Data from patent US11839215B2, “Uracil compound and harmful arthropod control composition containing same” (Sumitomo Chemical Company, Limited, priority 2018, dated 2023).

Tested on: common cutworms (Spodoptera litura)
Test: Test Example 1: spray on cabbage seedling, mortality of common cutworm larvae
Format: in vivo
Details: 500 ppm diluted solution sprayed on cabbage seedling 20 mL/seedling; five second instar larvae; 25° C., 5 days
Description: The compound A is made to a formulation according to a similar method to that described in the Formulation Example 5, and thereto is added water containing 0.03 v/v % of shindain (registered trademark) to prepare a diluted solution containing 500 ppm of the test compound.
The diluted solution was sprayed into the cabbage (Brassicae oleracea) seedling (on the developmental stage of the second to third true leaf) that is planted in a container in a ratio of 20 mL/seedling.
Thereafter, the stem and leaf thereof was cut out and then was installed into the container that was covered with the filter paper. Five common cutworms (Spodoptera litura) at the second instar larval stages were released into the container, and the container was allowed to stand at 25° C. for 5 days. […] Mortality (%)={1−Number of the surviving insects/5}×100

CCOC(=O)COc1ncccc1Oc1cc(-n2c(=O)cc(C(F)(F)F)n(C)c2=O)c(F)cc1Cl [Compound B]
mortality of insects: 0%

CCOC(=O)COc1nc(C)cc(C)c1Oc1cc(-n2c(=O)cc(C(F)(F)F)n(C)c2=O)c(F)cc1Cl [Compound A]
mortality of insects: 100%
